Data as given in patent US6784137B2, “6-aryl-4-aminopicolinates and their use as herbicides” (Dow AgroSciences LLC, priority 2001, dated 2004).

Key:
[1] = system: Barnyardgrass (Echinochloa crus-galli); test: Postemergence herbicidal activity, greenhouse spray; type: in vivo; settings: Table 1, visual score after 2 weeks; for pest or weed control at 500 ppm: rate 500 ppm
Method: (§1) When required to ensure good germination and healthy plants, a fungicide treatment and/or other chemical or physical treatment was applied. The plants were grown for 7-21 days in a greenhouse with an approximate 15 hr photoperiod which was maintained at about 23-29° C. during the day and 22-28° C. during the night. Nutrients and water were added on a regular basis and supplemental lighting was provided with overhead metal halide 1000-Watt lamps as necessary. The plants were employed for testing when they reached the first or second true leaf stage. A weighed amount, determined by the highest rate to be tested, of each test compound was placed in a 20 mL glass vial and was dissolved in 4 mL of a 97:3 v/v (volume/volume) mixture of acetone and dimethyl sulfoxide (DMSO) to obtain concentrated stock solutions. […] The concentrated stock solutions obtained were diluted with an aqueous mixture containing acetone, water, isopropyl alcohol, DMSO, At plus 411 F crop oil concentrate, and Triton X-155 surfactant in a 48.5:39:10:1.5:1.0:0.02 v/v ratio to obtain spray solutions of known concentration. The solutions containing the highest concentration to be tested were prepared by diluting 2 mL aliquots of the stock solution with 13 mL of the mixture and lower concentrations were prepared by serial dilution of the stock solution. Approximately 1.5 mL aliquots of each solution of known concentration were sprayed evenly onto each of the test plant pots using a DeVilbiss atomizer driven by compressed air pressure of 2 to 4 psi (140 to 280 kiloPascals) to obtain thorough coverage of each plant. Control plants were sprayed in the same manner with the aqueous mixture. […] The treated plants and control plants were placed in a greenhouse as described above and watered by sub-irrigation to prevent wash-off of the test compounds.

[2] = system: Cocklebur (Xanthium strumarium); test: as above; type: in vivo; settings: Table 1, visual score after 2 weeks; for pest or weed control at 500 ppm: rate 500 ppm, 0 no injury, 100 complete kill
Method: as §1

[3] = system: Lambsquarter (Chenopodium album); test: as above; type: in vivo; settings: Table 1, visual score after 2 weeks; for pest or weed control at 500 ppm: rate 500 ppm
Method: as §1

[4] = system: Yellow nutsedge (Cyperus esculentus); test: as above; type: in vivo; settings: Table 1, visual score after 2 weeks
Method: as §1

[5] = system: Crabgrass(large) (Digitaria sanguinalis); test: Preemergence herbicidal activity, soil spray; type: in vivo; settings: Table 5, visual score after 3 weeks
Excerpt: (§2) Seeds of the desired test plant species were planted in a soil matrix prepared by mixing a loam soil (43 percent silt, 19 percent clay, and 38 percent sand, with a pH of about 8.1 and an organic matter content of about 1.5 percent) and sand in a 70 to 30 ratio. The soil matrix was contained in plastic pots with a surface area of 113 square centimeters. When required to ensure good germination and healthy plants, a fungicide treatment and/or other chemical or physical treatment was applied. A weighed amount, determined by the highest rate to be tested, of each test compound was placed in a 20 mL glass vial and was dissolved in 4 mL of a 97:3 v/v (volume/volume) mixture of acetone and dimethyl sulfoxide to obtain concentrated stock solutions. […] The stock solutions obtained were diluted with a 99.9:0.1 mixture of water and Tween® 155 surfactant to obtain application solutions of known concentration. The solutions containing the highest concentration to be tested were prepared by diluting 2 mL aliquots of the stock solution with 15 mL of the mixture and lower concentrations were prepared by serial dilution of the stock solution. A 2.5 mL aliquot of each solution of known concentration was sprayed evenly onto the soil surface (113 sq. cm) of each seeded pot using a Cornwall 5.0 mL glass syringe fitted with a TeeJet TN-3 hollow cone nozzle to obtain thorough coverage of the soil in each pot. Control pots were sprayed in the same manner with the aqueous mixture. The treated pots and control pots were placed in a greenhouse maintained with an approximate 15 hr photoperiod and temperatures of about 23-29° C. during the day and 22-28° C. during the night. Nutrients and water were added on a regular basis and supplemental lighting was provided with overhead metal halide 1000-Watt lamps as necessary. The water was added by top-irrigation.

[6] = system: Giant Foxtail (Setaria faberi); test: Preemergence herbicidal activity, soil spray; type: in vivo; settings: Table 5, visual score after 3 weeks
Excerpt: as §2

[7] = system: Lambsquarter (Chenopodium album); test: Preemergence herbicidal activity, soil spray; type: in vivo; settings: Table 5, visual score after 3 weeks
Excerpt: as §2

[8] = system: Pigweed (redroot) (Amaranthus retroflexus); test: Preemergence herbicidal activity, soil spray; type: in vivo; settings: Table 5, visual score after 3 weeks
Excerpt: as §2

[9] = Echinochloa crus-galli, post-emergence, 336 h, rate 250 ppm, read-out: Post-emergent % control ECHCG
[10] = Xanthium strumarium, post-emergence, 336 h, rate 250 ppm, read-out: Post-emergent % control XANST
[11] = Chenopodium album, post-emergence, 336 h, rate 250 ppm, read-out: Post-emergent % control CHEAL
[12] = Cyperus, post-emergence, 336 h, rate 250 ppm, read-out: Post-emergent % control CYPES
[13] = Digitaria sanguinalis, pre-emergence, 504 h, rate 560 ppm, read-out: Pre-emergent % control DIGSA
[14] = Setaria faberi, pre-emergence, 504 h, rate 560 ppm, read-out: Pre-emergent % control SETFA
[15] = Chenopodium album, pre-emergence, 504 h, rate 560 ppm, 100 complete kill or no germination, read-out: Pre-emergent % control CHEAL
[16] = Amaranthus retroflexus, pre-emergence, 504 h, rate 560 ppm, read-out: Pre-emergent % control AMARE
[17] = Echinochloa crus-galli, post-emergence, 336 h, read-out: Post-emergent % control ECHCG
[18] = Xanthium strumarium, post-emergence, 336 h, read-out: Post-emergent % control XANST
[19] = Chenopodium album, post-emergence, 336 h, read-out: Post-emergent % control CHEAL
[20] = rate 560 ppm, 100 complete kill or no germination

Compound `COC(=O)c1nc(-c2ccc(Cl)cc2Cl)cc(N)c1Cl` [Compound 13, Methyl 4-amino-3-chloro-6-(2,4-dichlorophenyl)pyridine-2-carboxylate] has a pest or weed control at 250 ppm [1, 9] of 70%, a pest or weed control at 250 ppm [2, 10] of 100% and a pest or weed control at 250 ppm [3, 11] of 100%. It also gave a pest or weed control at 250 ppm [4, 12] of 80%, a pest or weed control at 560 ppm [5, 13] of 90% and a pest or weed control at 560 ppm [6, 14] of 100%. The pest or weed control at 560 ppm [7, 15] was 100%, the pest or weed control at 560 ppm [8, 16] was 100% and the melting point was 130 to 131 °C.

With `COC(=O)c1nc(-c2ccc(OC)cc2)cc(N)c1Cl` [Compound 17, Methyl 4-amino-3-chloro-6-(4-methoxyphenyl)pyridine-2-carboxylate] the pest or weed control at 250 ppm [1, 9] was 70%, the pest or weed control at 250 ppm [2, 10] was 100% and the pest or weed control at 250 ppm [3, 11] was 100%. The pest or weed control at 250 ppm [4, 12] was 70%, the pest or weed control at 560 ppm [5, 13] was 100% and the pest or weed control at 560 ppm [6, 14] was 100%. The pest or weed control at 560 ppm [7, 15] was 100%, the pest or weed control at 560 ppm [8, 16] was 100% and the melting point was 148 to 149 °C.

For `COC(=O)c1nc(-c2ccc(Cl)cc2)cc(N)c1Cl` [Compound 19, Methyl 4-amino-3-chloro-6-(4-chlorophenyl)pyridine-2-carboxylate], the pest or weed control at 250 ppm [1, 9] was 80%, the pest or weed control at 250 ppm [2, 10] was 100% and the pest or weed control at 250 ppm [3, 11] was 95%. For the same compound, the pest or weed control at 250 ppm [4, 12] was 90%, the pest or weed control at 560 ppm [5, 13] was 100% and the pest or weed control at 560 ppm [6, 14] was 100%. It also gave a pest or weed control at 560 ppm [7, 15] of 100%, a pest or weed control at 560 ppm [8, 16] of 100% and a melting point of 132 °C.

`COC(=O)c1nc(-c2ccc(Cl)cc2F)cc(N)c1Cl` [Compound 59, Methyl 4-amino-3-chloro-6-(4-chloro-2-fluorophenyl)pyridine-2-carboxylate] showed a pest or weed control at 500 ppm [1, 17] of 80%, a pest or weed control at 500 ppm [2, 18] of 100% and a pest or weed control at 500 ppm [3, 19] of 100%. For the same compound, the pest or weed control at 280 ppm ([5]; Digitaria sanguinalis, pre-emergence, 504 h, rate 280 ppm, read-out: Pre-emergent % control DIGSA) was 100%, the pest or weed control at 280 ppm ([6]; Setaria faberi, pre-emergence, 504 h, rate 280 ppm, read-out: Pre-emergent % control SETFA) was 100% and the pest or weed control at 280 ppm ([7]; Chenopodium album, pre-emergence, 504 h, rate 280 ppm, read-out: Pre-emergent % control CHEAL) was 100%. For the same compound, the pest or weed control at 280 ppm ([8]; Amaranthus retroflexus, pre-emergence, 504 h, rate 280 ppm, read-out: Pre-emergent % control AMARE) was 100% and the melting point was 107 to 109 °C.

For `COC(=O)c1nc(-c2ccc(C)cc2)cc(-n2cccc2)c1Cl` [Compound 89, Methyl 4-N-pyrolyl-3-chloro-6-(4-methylphenyl)pyridine-2-carboxylate], the “Post-emergent % control ECHCG” value ([1]; rate 250 ppm) was 90%, the “Post-emergent % control XANST” value ([2]; rate 250 ppm) was 100% and the “Post-emergent % control CHEAL” value ([3]; rate 250 ppm) was 100%. For the same compound, the “Post-emergent % control CYPES” value ([4]; rate 250 ppm) was 50%, the “Pre-emergent % control DIGSA” value ([5]; rate 560 ppm) was 90% and the “Pre-emergent % control SETFA” value ([6]; rate 560 ppm) was 85%. The “Pre-emergent % control CHEAL” value [7, 20] was 100% and the “Pre-emergent % control AMARE” value ([8]; rate 560 ppm) was 100%.

For `Nc1c(F)c(-c2ccc(C(F)(F)F)cc2)nc(C(=O)O)c1Cl` [Compound 172, 4-Amino-3-chloro-5-fluoro-6-(4-trifluorophenyl)pyridine-2-carboxylic acid], the “Post-emergent % control ECHCG” value ([1]; rate 125 ppm) was 90%, the “Post-emergent % control XANST” value ([2]; rate 125 ppm) was 100% and the “Post-emergent % control CHEAL” value ([3]; rate 125 ppm) was 90%. For the same compound, the “Post-emergent % control CYPES” value ([4]; rate 125 ppm) was 90%, the “Pre-emergent % control DIGSA” value ([5]; rate 140 ppm) was 95% and the “Pre-emergent % control SETFA” value ([6]; rate 140 ppm) was 90%. The “Pre-emergent % control CHEAL” value ([7]; rate 140 ppm) was 90% and the “Pre-emergent % control AMARE” value ([8]; rate 140 ppm) was 95%.

In the case of `Nc1c(F)c(-c2ccc(Cl)cc2)nc(C(=O)O)c1Cl` [Compound 173, 4-Amino-3-chloro-5-fluoro-6-(4-chlorophenyl)pyridine-2-carboxylic acid], the pest or weed control at 500 ppm [1, 17] is reported as 100%, the pest or weed control at 500 ppm [2, 18] is reported as 100% and the pest or weed control at 500 ppm [3, 19] is reported as 100%. For the same compound, the pest or weed control at 500 ppm ([4]; Cyperus, post-emergence, 336 h, rate 500 ppm, read-out: Post-emergent % control CYPES) was 100%, the pest or weed control at 560 ppm [5, 13] was 100% and the pest or weed control at 560 ppm [6, 14] was 100%. The pest or weed control at 560 ppm [7, 15] was 100% and the pest or weed control at 560 ppm [8, 16] was 100%.

`Nc1cc(-c2ccc(Cl)c(C(F)(F)F)c2)nc(C(=O)O)c1Cl` [Compound 179, 4-Amino-3-chloro-6-(4-chloro-3-(trifluoromethyl)phenyl)pyridine-2-carboxylic acid] showed a pest or weed control at 560 ppm [5, 13] of 98%, a pest or weed control at 560 ppm [6, 14] of 98% and a pest or weed control at 560 ppm [7, 15] of 100%. The pest or weed control at 560 ppm [8, 16] was 100% and the melting point was 176 °C.

With `Cc1ccc(-c2cc(-n3cccc3)c(Cl)c(C(=O)O)n2)cc1` [Compound 180, 3-chloro-6-(4-methylphenyl)-4-(N-pyrolyl)pyridine-2-carboxylic acid] the “Post-emergent % control ECHCG” value ([1]; rate 250 ppm) was 70%, the “Post-emergent % control XANST” value ([2]; rate 250 ppm) was 80% and the “Post-emergent % control CHEAL” value ([3]; rate 250 ppm) was 100%. The “Post-emergent % control CYPES” value ([4]; rate 250 ppm) was 30%, the “Pre-emergent % control DIGSA” value ([5]; rate 560 ppm) was 95% and the “Pre-emergent % control SETFA” value ([6]; rate 560 ppm) was 100%. For the same compound, the “Pre-emergent % control CHEAL” value [7, 20] was 100% and the “Pre-emergent % control AMARE” value ([8]; rate 560 ppm) was 100%.

With `Nc1cc(-c2ccc(C(F)(F)F)cc2Cl)nc(C(=O)O)c1Cl` [Compound 184, 4-Amino-3-chloro-6-(2-chloro-4-(trifluoromethyl)phenyl)pyridine-2-carboxylic acid] the pest or weed control at 125 ppm ([1]; Echinochloa crus-galli, post-emergence, 336 h, rate 125 ppm, read-out: Post-emergent % control ECHCG) was 70%, the pest or weed control at 125 ppm ([2]; Xanthium strumarium, post-emergence, 336 h, rate 125 ppm, read-out: Post-emergent % control XANST) was 100% and the pest or weed control at 125 ppm ([3]; Chenopodium album, post-emergence, 336 h, rate 125 ppm, read-out: Post-emergent % control CHEAL) was 70%. For the same compound, the pest or weed control at 125 ppm ([4]; Cyperus, post-emergence, 336 h, rate 125 ppm, read-out: Post-emergent % control CYPES) was 40%, the pest or weed control at 140 ppm ([5]; Digitaria sanguinalis, pre-emergence, 504 h, rate 140 ppm, read-out: Pre-emergent % control DIGSA) was 90% and the pest or weed control at 140 ppm ([6]; Setaria faberi, pre-emergence, 504 h, rate 140 ppm, read-out: Pre-emergent % control SETFA) was 70%. The pest or weed control at 140 ppm ([7]; Chenopodium album, pre-emergence, 504 h, rate 140 ppm, read-out: Pre-emergent % control CHEAL) was 90% and the pest or weed control at 140 ppm ([8]; Amaranthus retroflexus, pre-emergence, 504 h, rate 140 ppm, read-out: Pre-emergent % control AMARE) was 85%.
